Results taken from patent US10463671B2, “Combination therapy for treating cancer” (Epizyme, Inc., priority 2013, dated 2019).

Key:
[1] = test system: glucocorticoid signaling genes in SU-DHL4 cells; assay: RT2 Glucocorticoid Signaling PCR array; assay type: cell-based; conditions: SUDHL4 cell line; 4 days; normalized to B2M
[2] = test system: glucocorticoid signaling genes in OCI-LY19 cells; assay: RT2 Glucocorticoid Signaling PCR array; assay type: cell-based; conditions: compared to DMSO; OCI cell line; 4 days
[3] = test system: WSU-DLCL2 cells; assay: Medium throughput combination proliferation assay (CellTiter-Glo, Chou-Talalay CI / potency shift)

CCN(c1cc(-c2ccc(CN3CCOCC3)cc2)cc(C(=O)NCc2c(C)cc(C)[nH]c2=O)c1C)C1CCOCC1 [Compound 44]
AK2 ΔCT (B2M) [1]: 1.846 | AMPD3 ΔCT (B2M) [1]: 6.024 | ANGPTL4 ΔCT (B2M) [1]: 10.570 | ANXA4 ΔCT (B2M) [1]: 8.217 | AQP1 ΔCT (B2M) [1]: 14.226 | ARID5B ΔCT (B2M) [1]: 5.748 | ASPH ΔCT (B2M) [1]: 3.985 | ATF4 ΔCT (B2M) [1]: 0.232 | B2M ΔCT (B2M) [1]: 0.000 | BCL6 ΔCT (B2M) [1]: 1.878 | CEBPA ΔCT (B2M) [1]: 10.026 | CEBPB ΔCT (B2M) [1]: 5.188 | CREB1 ΔCT (B2M) [1]: 4.237 | CREB3L4 ΔCT (B2M) [1]: 5.662 | CREB3 ΔCT (B2M) [1]: 5.665 | CYB561 ΔCT (B2M) [1]: 14.250 | DDIT4 ΔCT (B2M) [1]: 3.098 | DIRAS2 ΔCT (B2M) [1]: 14.626 | DUSP1 ΔCT (B2M) [1]: 7.998 | EDN1 ΔCT (B2M) [1]: 13.616 | FKBP5 ΔCT (B2M) [1]: 3.113 | FOSL2 ΔCT (B2M) [1]: 14.606 | GAPDH ΔCT (B2M) [1]: −2.966 | GDPD1 ΔCT (B2M) [1]: 8.216 | GLUL ΔCT (B2M) [1]: 15.658 | GOT1 ΔCT (B2M) [1]: 4.103 | H6PD ΔCT (B2M) [1]: 6.063 | HAS2 ΔCT (B2M) [1]: 13.205 | HNRPLL ΔCT (B2M) [1]: 3.821 | HPRT1 ΔCT (B2M) [1]: 2.826 | IL1RN ΔCT (B2M) [1]: 17.503 | IL6R ΔCT (B2M) [1]: 13.239 | IL10 ΔCT (B2M) [1]: 12.363 | KLF9 ΔCT (B2M) [1]: 8.013 | KLF13 ΔCT (B2M) [1]: 4.078 | MERTK ΔCT (B2M) [1]: 15.103 | MT2A ΔCT (B2M) [1]: 4.766 | NFKBIA ΔCT (B2M) [1]: 4.260 | NR3C1 ΔCT (B2M) [1]: 4.025 | PDCD7 ΔCT (B2M) [1]: 5.357 | PDGFRB ΔCT (B2M) [1]: 16.449 | PDP1 ΔCT (B2M) [1]: 6.751 | PER1 ΔCT (B2M) [1]: 6.217 | PER2 ΔCT (B2M) [1]: 5.647 | PIK3R1 ΔCT (B2M) [1]: 4.859 | PLEKHF1 ΔCT (B2M) [1]: 8.928 | POU2F1 ΔCT (B2M) [1]: 5.110 | POU2F2 ΔCT (B2M) [1]: 3.085 | RASA3 ΔCT (B2M) [1]: 4.228 | RGS2 ΔCT (B2M) [1]: 5.914 | RHOB ΔCT (B2M) [1]: 11.328 | RHOJ ΔCT (B2M) [1]: 19.737 | RPLP0 ΔCT (B2M) [1]: −3.490 | SESN1 ΔCT (B2M) [1]: 6.439 | SGK1 ΔCT (B2M) [1]: 7.757 | SLC10A6 ΔCT (B2M) [1]: 15.580 | SLC19A2 ΔCT (B2M) [1]: 7.877 | SLC22A5 ΔCT (B2M) [1]: 8.969 | SNTA1 ΔCT (B2M) [1]: 5.666 | SPHK1 ΔCT (B2M) [1]: 10.251 | SPSB1 ΔCT (B2M) [1]: 6.832 | STAT5A ΔCT (B2M) [1]: 6.005 | STAT5B ΔCT (B2M) [1]: 3.152 | TBL1XR1 ΔCT (B2M) [1]: 2.099 | TNF ΔCT (B2M) [1]: 10.753 | TNFAIP3 ΔCT (B2M) [1]: 9.051 | TSC22D3 ΔCT (B2M) [1]: 4.628 | USP2 ΔCT (B2M) [1]: 3.364 | USP54 ΔCT (B2M) [1]: 15.234 | VDR ΔCT (B2M) [1]: 8.200 | VLDLR ΔCT (B2M) [1]: 9.068 | ZFP36 ΔCT (B2M) [1]: 6.014 | ZHX3 ΔCT (B2M) [1]: 5.569 | ZNF281 ΔCT (B2M) [1]: 5.057 | ΔΔCT, ADARB1 [2]: −0.788 | ΔΔCT, ARID5B [2]: 0.231 | ΔΔCT, PDCD7 [2]: 0.024 | ΔΔCT, SPHK1 [2]: 0.018 | maximum reduction in Compound 44 IC50 with Prednisolone ([3]; WSU-DLCL2 (FIG. 3A)): 24 fold | potency enhancement of Compound 44 at biologically relevant concentration of Dexamethasone ([3]; WSU-DLCL2, 100 nM Dexamethasone): 15 fold | potency enhancement of Compound 44 at biologically relevant concentration of Prednisolone ([3]; WSU-DLCL2, 1 μM Prednisolone): 7 fold
